Key:
[1] = Cytotoxicity against Homo sapiens (human) HONE1 cells after 24 hr by MTT assay; assay type: functional, cell-based; conditions: HONE1, 24 h
[2] = test system: HEp-2; assay: Cytotoxicity against Homo sapiens (human) Hep2 cells after 24 hr by MTT assay; assay type: functional, cell-based; conditions: HEp-2, 24 h
[3] = test system: HL-60; assay: Cytotoxicity against Homo sapiens (human) HL60 cells after 24 hr by MTT assay; assay type: functional, cell-based; conditions: HL-60, 24 h
[4] = target: T1, Nitric oxide synthase, inducible (Mus musculus) (UniProt P29477); assay: Inhibition of iNOS in Mus musculus (mouse) RAW 264.7 cells assessed as inhibition of LPS-induced nitrite production pretreated for 24 hr before stimulation with LPS measured after 18 hr by […]; parameters: concentration or dose not given beside the values; conditions: concentration not given here
T1 sequence (whole entry): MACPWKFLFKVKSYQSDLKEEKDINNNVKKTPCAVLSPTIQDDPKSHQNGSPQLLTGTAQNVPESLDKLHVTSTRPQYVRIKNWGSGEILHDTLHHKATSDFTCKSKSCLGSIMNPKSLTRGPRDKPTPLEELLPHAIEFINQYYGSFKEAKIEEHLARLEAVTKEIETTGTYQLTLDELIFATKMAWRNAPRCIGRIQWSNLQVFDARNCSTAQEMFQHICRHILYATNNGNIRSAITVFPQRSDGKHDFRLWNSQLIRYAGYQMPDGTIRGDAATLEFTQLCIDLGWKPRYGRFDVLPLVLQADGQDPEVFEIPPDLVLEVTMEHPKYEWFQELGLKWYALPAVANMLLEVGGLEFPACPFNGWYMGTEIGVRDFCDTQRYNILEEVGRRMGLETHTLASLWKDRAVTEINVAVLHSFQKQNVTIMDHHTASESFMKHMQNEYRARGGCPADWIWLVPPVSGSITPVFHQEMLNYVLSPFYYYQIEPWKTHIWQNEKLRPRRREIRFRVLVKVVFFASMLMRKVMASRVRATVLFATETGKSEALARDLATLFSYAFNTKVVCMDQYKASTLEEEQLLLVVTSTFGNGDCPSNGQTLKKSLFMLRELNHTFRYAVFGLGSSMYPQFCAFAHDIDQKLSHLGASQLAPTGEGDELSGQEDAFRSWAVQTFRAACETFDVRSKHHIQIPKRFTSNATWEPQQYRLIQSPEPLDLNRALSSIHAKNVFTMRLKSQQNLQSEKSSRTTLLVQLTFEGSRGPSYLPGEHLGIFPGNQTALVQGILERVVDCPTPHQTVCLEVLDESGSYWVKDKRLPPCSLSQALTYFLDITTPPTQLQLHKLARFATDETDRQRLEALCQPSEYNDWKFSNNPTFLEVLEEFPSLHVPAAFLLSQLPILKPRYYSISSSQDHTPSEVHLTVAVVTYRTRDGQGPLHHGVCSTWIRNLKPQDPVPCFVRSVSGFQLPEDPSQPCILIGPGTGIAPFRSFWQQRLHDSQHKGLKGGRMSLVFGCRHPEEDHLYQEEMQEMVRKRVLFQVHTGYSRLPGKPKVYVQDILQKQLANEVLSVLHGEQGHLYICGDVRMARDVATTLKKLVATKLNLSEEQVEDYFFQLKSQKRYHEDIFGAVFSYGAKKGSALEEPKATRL

[5] = test system: NUGC; assay: Cytotoxicity against Homo sapiens (human) NUGC cells after 24 hr by MTT assay; assay type: functional, cell-based

| SMILES | inhibition [4] | IC50 [1] | IC50 [2] | IC50 [3] | IC50 [5] |
| --- | --- | --- | --- | --- | --- |
| O=C1C2C3C=CC(CC3)C2C(=O)N1c1ccccc1 (stereo unspecified) | 82% | > 200 µM | 41.2 µM | 118 µM |  |
| N#Cc1ccc(N2C(=O)[C@@H]3C4C=CC(CC4)[C@@H]3C2=O)cc1 | 68.4% | > 200 µM |  |  |  |
| Nc1ccccc1CN1C(=O)C2C3C=CC(CC3)C2C1=O (stereo unspecified) | 75.5% | > 200 µM |  | > 200 µM | > 200 µM |
| Nc1ccc(N2C(=O)[C@@H]3C4C=CC(CC4)[C@@H]3C2=O)cc1 | 87.9% |  | > 200 µM | 166 µM |  |
| O=C1CCC(N2C(=O)c3ccccc3C2=O)C(=O)N1 (stereo unspecified) | 28.2% |  |  |  |  |
| COc1ccc(N2C(=O)C3C4C=CC(CC4)C3C2=O)cc1 (stereo unspecified) | 84.6% |  | > 200 µM | > 200 µM | > 200 µM |
| O=C1C2C3C=CC(CC3)C2C(=O)N1c1ccc(Br)cn1 (stereo unspecified) | 56.6% |  | 150 µM | > 200 µM | > 200 µM |
| Cc1ccc2c(c1)C(=O)N(c1ccc(/N=N\c3ccccc3)cc1)C2=O | 91.9% | > 200 µM | 104 µM | 59.5 µM | > 200 µM |
| Nc1ccccc1N1C(=O)C2C3C=CC(CC3)C2C1=O (stereo unspecified) | 76.9% | > 200 µM | 32.5 µM | 67.6 µM | > 200 µM |
| O=C1C2C3C=CC(CC3)C2C(=O)N1c1ccc(-c2ccccc2)cc1 (stereo unspecified) | 86.6% |  | 46.3 µM | 104 µM | > 200 µM |
| Cc1cccc2c1C(=O)N(Cc1ccc(N)cc1)C2=O | 80.7% | > 200 µM |  | > 200 µM | > 200 µM |
| Nc1cccc(N2C(=O)C3C4C=CC(CC4)C3C2=O)c1 (stereo unspecified) | 68.4% | > 200 µM | 53.4 µM | 64.1 µM |  |
| CC1=C(C)C(=O)N(Cc2ccccc2N)C1=O | 72.8% | > 200 µM |  | 139 µM | > 200 µM |
| O=C1C2C3C=CC(CC3)C2C(=O)N1c1ncc(Cl)cc1Cl (stereo unspecified) | 77.9% | > 200 µM | > 200 µM | 139 µM |  |
| O=C1C2C3C=CC(CC3)C2C(=O)N1c1ccc(Cl)cn1 (stereo unspecified) | 44.9% | > 200 µM | > 200 µM | > 200 µM | > 200 µM |
| O=C1C2C3C=CC(CC3)C2C(=O)N1c1ccc(S)cc1 (stereo unspecified) | 87.9% |  |  |  |  |

More lines, main results first:

| inhibition [4] | SMILES | IC50 [1] | IC50 [2] | IC50 [3] | IC50 [5] |
| --- | --- | --- | --- | --- | --- |
| 67.6% | O=C1c2ccccc2C(=O)N1c1ccccn1 | 156 µM | 65.8 µM | > 200 µM | > 200 µM |
| 74.8% | Cc1ccc2c(c1)C(=O)N(c1ccc([N+](=O)[O-])cn1)C2=O | > 200 µM | 172 µM | > 200 µM | > 200 µM |
| 90.6% | O=C1c2ccccc2C(=O)N1c1cccc([N+](=O)[O-])c1 |  | 179 µM | 174 µM | > 200 µM |
| 67.6% | O=C1c2cccc3cccc(c23)C(=O)N1c1ccccc1 | > 200 µM | 44.2 µM | > 200 µM | > 200 µM |
| 81.4% | Nc1ccc(CN2C(=O)c3ccccc3C2=O)cc1 | > 200 µM |  | > 200 µM | > 200 µM |
| 94.5% | O=C1c2ccccc2C(=O)N1c1ccc(Cl)cn1 | > 200 µM | 56.7 µM | 67.2 µM | > 200 µM |
| 81.4% | Nc1cccc(N2C(=O)c3cccc4cccc(c34)C2=O)c1 | > 200 µM | 147 µM | > 200 µM | > 200 µM |
| 80.1% | N#Cc1ccccc1N1C(=O)c2ccccc2C1=O | > 200 µM | > 200 µM | > 200 µM | > 200 µM |
| 98.4% | Cc1ccc2c(c1)C(=O)N(Cc1ccccc1N)C2=O | > 200 µM |  | > 200 µM | > 200 µM |
| 85.3% | O=C1c2ccccc2C(=O)N1c1ccccc1N1C(=O)c2ccccc2C1=O | > 200 µM | 56.8 µM | > 200 µM | > 200 µM |
| 94.5% | O=C1c2ccccc2C(=O)N1c1ccc(S)cc1 | > 200 µM | > 200 µM | > 200 µM | > 200 µM |
| 71.5% | O=C1c2ccccc2C(=O)N1c1ccc(Cl)cc1 |  | 178 µM | > 200 µM | > 200 µM |
| 89.2% | O=C1c2ccccc2C(=O)N1c1ccccc1 [N-PHENYL-PHTHALIMIDE] |  | > 200 µM | > 200 µM | > 200 µM |
| 84.6% | O=C1c2ccccc2C(=O)N1c1ccc(-c2ccccc2)cc1 | > 200 µM | 40.4 µM | 119 µM | > 200 µM |
| 90.6% | Nc1ccc(N2C(=O)c3cccc4cccc(c34)C2=O)cc1 | > 200 µM | 43.9 µM | > 200 µM | > 200 µM |
| 91.9% | Nc1cccc(CN2C(=O)c3ccccc3C2=O)c1 | > 200 µM |  | 78.1 µM | > 200 µM |
| 87.3% | COc1ccc(N2C(=O)c3ccccc3C2=O)cc1 | > 200 µM | > 200 µM | > 200 µM | > 200 µM |
| 70.9% | Cc1ccc2c(c1)C(=O)N(c1ccc(-c3ccccc3)cc1)C2=O | > 200 µM | 104 µM | 59.5 µM |  |

Source: ChEMBL document CHEMBL3045031, “Study on synthesis of thalidomide analogues and their bioactivities; inhibition on iNOS pathway and cytotoxic effects” (Med Chem Res, 2012)
